pIC50: −log10 of the molar value.
Target: T1, αvβ3 (vitronectin receptor) (Homo sapiens, UniProt P05106+P06756)
T1 construct: Human placenta or human platelet αvβ3 (0.1-0.3 mg/mL) in buffer T; from tissue; host or cells: human placenta or human platelets
Experiment: Solid-Phase [3H]-SK&F-107260 Binding to αvβ3
Conditions: read-out: concentration at which the compound inhibits vitronectin binding to SK&F 107260
Description: Solid-Phase [^3H]-SK&F-107260 Binding to αvβ3: Human placenta or human platelet αvβ3 (0.1-0.3 mg/mL) in buffer T (containing 2 mM CaCl2 and 1% octylglucoside) was diluted with buffer T containing 1 mM CaCl2, 1 mM MnCl2, 1 mM MgCl2 (buffer A) and 0.05% NaN3, and then immediately added to 96-well ELISA plates (Corning, New York, N.Y.) at 0.1 mL per well. 0.1-0.2 μg of αvβ3 was added per well. The plates were incubated overnight at 4° C. At the time of the experiment, the wells were washed once with buffer A and were incubated with 0.1 mL of 3.5% bovine serum albumin in the same buffer for 1 hr at room temperature. Following incubation the wells were aspirated completely and washed twice with 0.2 mL buffer A. […]
The plates were incubated for 1 hr at room temperature. […] The receptors were solubilized with 0.1 mL of 1% SDS and the bound [^3H]-SK&F-107260 was determined by liquid scintillation counting with the addition of 3 mL Ready Safe in a Beckman LS Liquid Scintillation Counter, with 40% efficiency. Nonspecific binding of [^3H]-SK&F-107260 was determined in the presence of 2 μM SK&F-107260 and was consistently less than 1% of total radioligand input. […] The Ki (dissociation constant of the antagonist) was calculated according to the equation: Ki=IC50/(1+L/Kd), where L and Kd were the concentration and the dissociation constant of [^3H]-SK&F-107260, respectively.

T1 sequence (P06756 31-889 limits assumed): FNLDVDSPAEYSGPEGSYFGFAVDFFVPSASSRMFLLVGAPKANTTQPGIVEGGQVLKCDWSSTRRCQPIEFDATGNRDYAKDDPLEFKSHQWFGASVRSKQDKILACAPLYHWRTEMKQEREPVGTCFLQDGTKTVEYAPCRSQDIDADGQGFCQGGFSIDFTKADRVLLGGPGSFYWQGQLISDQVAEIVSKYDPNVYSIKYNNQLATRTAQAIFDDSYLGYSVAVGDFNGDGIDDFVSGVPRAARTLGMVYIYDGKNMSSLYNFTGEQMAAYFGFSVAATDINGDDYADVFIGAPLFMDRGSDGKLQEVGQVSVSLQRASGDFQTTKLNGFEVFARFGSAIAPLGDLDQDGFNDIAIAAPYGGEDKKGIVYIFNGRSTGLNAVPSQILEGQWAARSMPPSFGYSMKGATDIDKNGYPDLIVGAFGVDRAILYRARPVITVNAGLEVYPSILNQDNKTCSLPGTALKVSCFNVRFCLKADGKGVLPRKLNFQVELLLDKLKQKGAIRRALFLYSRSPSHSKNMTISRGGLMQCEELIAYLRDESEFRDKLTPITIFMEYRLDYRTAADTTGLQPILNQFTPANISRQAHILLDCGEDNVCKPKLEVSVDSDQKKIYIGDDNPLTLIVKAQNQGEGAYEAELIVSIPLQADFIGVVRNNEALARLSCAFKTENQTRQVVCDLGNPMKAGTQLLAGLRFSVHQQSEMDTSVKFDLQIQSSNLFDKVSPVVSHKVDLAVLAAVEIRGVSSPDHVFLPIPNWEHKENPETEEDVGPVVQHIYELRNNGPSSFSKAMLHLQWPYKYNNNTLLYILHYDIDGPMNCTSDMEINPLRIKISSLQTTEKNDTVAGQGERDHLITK
T1 sequence (P06756 891-1048 partner limits assumed): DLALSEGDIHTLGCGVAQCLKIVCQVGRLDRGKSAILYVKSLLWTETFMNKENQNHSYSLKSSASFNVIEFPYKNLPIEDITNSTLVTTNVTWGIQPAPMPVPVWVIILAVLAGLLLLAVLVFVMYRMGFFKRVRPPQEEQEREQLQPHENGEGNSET
T1 sequence (P05106 27-788): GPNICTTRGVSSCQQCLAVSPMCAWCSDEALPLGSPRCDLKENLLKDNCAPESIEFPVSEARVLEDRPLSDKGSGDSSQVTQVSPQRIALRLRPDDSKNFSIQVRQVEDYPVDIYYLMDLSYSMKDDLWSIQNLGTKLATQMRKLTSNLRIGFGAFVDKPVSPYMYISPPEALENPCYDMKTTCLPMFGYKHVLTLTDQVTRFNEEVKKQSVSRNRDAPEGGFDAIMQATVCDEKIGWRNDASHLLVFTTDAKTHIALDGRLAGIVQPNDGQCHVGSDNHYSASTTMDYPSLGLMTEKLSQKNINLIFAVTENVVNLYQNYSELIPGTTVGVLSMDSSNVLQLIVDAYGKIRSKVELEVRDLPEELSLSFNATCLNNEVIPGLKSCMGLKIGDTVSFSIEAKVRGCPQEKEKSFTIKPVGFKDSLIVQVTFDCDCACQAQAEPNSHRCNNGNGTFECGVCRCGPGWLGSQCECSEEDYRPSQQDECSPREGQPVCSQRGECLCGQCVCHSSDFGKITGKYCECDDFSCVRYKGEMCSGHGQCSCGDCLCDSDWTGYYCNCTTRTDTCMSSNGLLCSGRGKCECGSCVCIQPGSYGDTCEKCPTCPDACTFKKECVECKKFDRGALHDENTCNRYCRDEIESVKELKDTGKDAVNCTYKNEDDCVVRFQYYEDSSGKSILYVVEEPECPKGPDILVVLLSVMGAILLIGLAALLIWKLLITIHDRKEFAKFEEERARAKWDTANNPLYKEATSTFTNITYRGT

**Q.** How did the pIC50 turn out when `O=C(O)C[C@@H]1Cc2ccc(OCCCNc3ccccn3)cc2CN(Cc2ccc(F)c(F)c2F)C1=O` [Example 1, (S)-3-oxo-8-[3-(pyridin-2-ylamino)-1-propyloxy]-2-(2,3,4-trifluorobenzyl)-2,3,4,5-tetrahydro-1H-2-benzazepine-4-acetic acid] was run?
**A.** ~8.52

Reference: patent publication US20020019387A1, “Vitronectin receptor antagonist” (SmithKline Beecham Corporation, priority 1997, published 2002)
